The source of these data is ChEMBL document CHEMBL1138916, “Design and synthesis of the first generation of dithiolane thiazolidinedione- and phenylacetic acid-based PPARgamma agonists” (J Med Chem, 2006).

In brackets after ≈: the same amount, converted by molar mass. Several values for one entry are separate records, joined by “and”; a condition that tells them apart may be missing. Equal values may be shown once. Activity calls are given as the source filed them. The calls are words filed in the database; no cut-off is given here. Where only a bound is given, the exact number is not on record here.

In data set [1] the target is T1, Peroxisome proliferator-activated receptor gamma (Homo sapiens) (UniProt P37231).
T1 sequence (whole entry): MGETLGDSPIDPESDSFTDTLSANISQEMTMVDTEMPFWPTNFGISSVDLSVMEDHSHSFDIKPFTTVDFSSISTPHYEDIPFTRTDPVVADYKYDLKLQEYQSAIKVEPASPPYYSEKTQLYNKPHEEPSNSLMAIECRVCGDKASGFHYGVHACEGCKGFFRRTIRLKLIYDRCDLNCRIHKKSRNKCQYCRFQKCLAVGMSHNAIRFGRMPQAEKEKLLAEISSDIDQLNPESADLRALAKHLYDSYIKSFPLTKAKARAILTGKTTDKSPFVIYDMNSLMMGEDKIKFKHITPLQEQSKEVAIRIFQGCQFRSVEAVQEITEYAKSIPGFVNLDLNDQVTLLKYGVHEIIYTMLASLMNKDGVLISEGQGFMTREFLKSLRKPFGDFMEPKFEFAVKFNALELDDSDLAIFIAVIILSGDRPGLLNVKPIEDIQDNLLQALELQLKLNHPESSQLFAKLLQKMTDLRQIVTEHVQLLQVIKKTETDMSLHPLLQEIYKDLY
The data set is described as follows: Transactivation of PPARgamma up to 30 uM in CV1 cells. It counts as functional, cell-based. Conditions: CV-1.

Data set [2] concerns the target T1, Peroxisome proliferator-activated receptor gamma (Homo sapiens). Description: Transactivation of PPARgamma at 10 uM in CV1 cells. It counts as functional, cell-based. Conditions: CV-1.
In data set [3] the test system is T-cell. The data set is described as follows: Inhibition of PHA/PMA-induced IL2 production in human T lymphocytes. The format is functional.
The subject of data set [4] is T-cell. Description: Inhibition of PHA/PMA-induced IL2 production in human T lymphocytes at 10 uM. It counts as functional, cell-based.
For data set [5], the target named is T2, Peroxisome proliferator-activated receptor gamma (Homo sapiens, UniProt P37231).
T2 sequence (P37231 whole entry): T1 sequence (whole entry)
Description: Transactivation of PPARgamma in CV1 cells

Data set [6] relates to 3T3-L1. The data set is described as follows: Induction of adipogenesis in mouse 3T3 L1 preadipocytes. The format is functional, cell-based.
Data set [7] has as its system Keratinocyte. Description: Antiproliferative activity against human keratinocytes. It counts as functional, cell-based.
Data set [8] concerns HT-29. Description: Antiproliferative activity against human HT29 cell line. It counts as functional, cell-based.
Data set [9] concerns MCF7. Description: Antiproliferative activity against human MCF7 cell line. It counts as functional, cell-based.
Data set [10] has as its system Rattus norvegicus. Description: Reduction in glucose level in Zucker fa/fa rat at 100 mg/kg relative to control. The format is functional.
Data set [11] has as its system Rattus norvegicus. The data set is described as follows: Reduction in triglycerides level in Zucker fa/fa rat at 100 mg/kg relative to control. The format is functional. The arrangement: scale not given: the % may be the effect or the level left.
A short description of data set [12]: Solubility in water. It counts as physicochemical.

Turning to `COC(=O)Cc1ccc(OCCN(C)C(=O)CCCCC2CCSS2)c(Cl)c1` (stereo unspecified), the outcome in data set [1] was inactive.
The same measure, in the same setting: then `CN(CCOc1ccc(CC2SC(=O)NC2=O)cc1)C(=O)CCC1CCSS1` (stereo unspecified), with “inactive”; and `CN(C(=O)CCCCC1CCSS1)c1ccc(CC2SC(=O)NC2=O)cc1` (stereo unspecified), with “inactive”.
In [2], `CN(CCOc1ccc(CC2SC(=O)NC2=O)cc1)C(=O)CCCCC(S)CCS` (stereo unspecified) registered an Activity of 129. In data set [3], this compound came in with an Inhibition of 80%. Further, in data set [4], the result was Active. Besides, in data set [5], a half-maximal effect (EC50) was put at 0.075 µM.
The compound `CN(CCCCC1CCSS1)CCOc1ccc(CC2SC(=O)NC2=O)cc1` (stereo unspecified) [listing 1 of 3 here] had an EC50 in data set [5] of 11.1 µM.
In turn, `CN(CCCCC1CCSS1)CCOc1ccc(CC2SC(=O)NC2=O)cc1` (stereo unspecified) [listing 2 of 3 here] yielded an EC50 in data set [5] of 11.1 µM.
In the case of `CN(CCOc1ccc(CC2SC(=O)NC2=O)cc1)C(=O)CCCCC(CCSC(=O)CCC(=O)O)SC(=O)CCC(=O)O` (stereo unspecified), the Activity in [2] worked out at 60. In addition, the midpoint of the response in data set [5], the EC50, lay at 0.08 µM.
`COC(=O)Cc1ccc(OCCCN(C)C(=O)CCCCC2CCSS2)c(Cl)c1` (stereo unspecified) gave an EC50 in data set [5] of 18.5 µM.
In turn, `CC(=O)SC(CCCCC(=O)N(C)CCOc1ccc(CC2SC(=O)NC2=O)cc1)CCSC(=O)CCC(=O)O` (stereo unspecified) had an Activity in data set [2] of 168. In data set [5], the EC50 came out at 0.15 µM.
As for `CN(CCCOc1ccc(CC(=O)O)cc1Cl)C(=O)CCCCC1CCSS1` (stereo unspecified), the midpoint of the response in data set [5], the EC50, lay at 12.3 µM.
`CN(CCOc1ccc(CC2SC(=O)NC2=O)cc1)C(=O)CCCCC(CCSC(=O)CN)SC(=O)CN.Cl.Cl` (stereo unspecified) had an Activity in data set [2] of 71. In data set [3], this compound registered an Inhibition of 92%. Further, the outcome in data set [4] and in data set [6] was Active. In addition, the concentration for half-maximal inhibition (IC50) in data set [7] was 1 µM; in data set [8], 8 µM; in data set [9], 25 µM. The EC50 in [5] was 0.06 µM.
`CN(CCOc1ccc(CC2SC(=O)NC2=O)cc1)c1ccccn1` (stereo unspecified) [ROSIGLITAZONE] displayed an Inhibition in [3] of 75%. Moreover, the values for the IC50 in [7], in [8] and in data set [9] were 8 µM, 45 µM and above 50 µM, respectively.
For `CC(=O)SCCC(CCCCC(=O)N(C)CCOc1ccc(CC2SC(=O)NC2=O)cc1)SC(C)=O` (stereo unspecified), the Activity in [2] came out at 150. Further, in [5], the EC50 stood at 0.039 µM.
For `CN(CCOc1ccc(CC2SC(=O)NC2=O)cc1)C(=O)CCCCC(S)CCSC(=O)CCC(=O)O` (stereo unspecified), in that order: 177 and 0.02 µM.
`O=C(CCCCC1CCSS1)NCCOc1ccc(CC2SC(=O)NC2=O)cc1` (stereo unspecified) had an EC50 in data set [5] of 10 µM.
As to `CN(CCOc1ccc(CC(=O)O)cc1Cl)C(=O)CCCCC1CCSS1` (stereo unspecified), in data set [1], the result was inactive.
For the compound `CN(CCOc1ccc(CC2SC(=O)NC2=O)cc1)C(=O)CCCCC1CCSS1` (stereo unspecified), in data set [3], the Inhibition is given as 92%. For the same compound, the outcome in data set [4] and in data set [6] was Active. In addition, the IC50 in [7] was 0.6 µM; in data set [8], 10 µM; in data set [9], 15 µM. In addition, the Activity is 180 mg/dL in [10]; 83% and 54 mg/dl in data set [11]. This compound came in with a solubility in data set [12] of 39 µg/mL (≈ 83.2 µM). The compound also had an EC50 in [5] of 0.015 µM.
For the compound `CC(=O)SC(CCCCC(=O)N(C)CCOc1ccc(CC2SC(=O)NC2=O)cc1)CCSC(=O)CN` (stereo unspecified), the Activity in data set [2] worked out at 138. The midpoint of the response in [5], the EC50, lay at 0.195 µM.
On to `CN(CCCCC1CCSS1)CCOc1ccc(CC2SC(=O)NC2=O)cc1` (stereo unspecified) [listing 3 of 3 here], for which the response in [5] was half-maximal at 28 µM (EC50).
